Experimental data from patent publication US20150241410A1, “INHIBITORS OF CENTRAL NERVOUS SYSTEM VASOACTIVE INHIBITORY PEPTIDE RECEPTOR 2” (The Trustees Of Columbia University In The City Of New York, priority 2012, published 2015).

Legend:
[1] = target: T1, VIPR2 (Homo sapiens, UniProt P41587); experiment: BRET-based VIPR2 activation assay (CAMYEL cAMP sensor, CHO cells, VIP background); format: cell-based; conditions: compared with Compound 1 or other compounds (FIG. 1C, FIG. 5B)
T1 construct: expressed in transfected cells
T1 sequence (P41587 24-438): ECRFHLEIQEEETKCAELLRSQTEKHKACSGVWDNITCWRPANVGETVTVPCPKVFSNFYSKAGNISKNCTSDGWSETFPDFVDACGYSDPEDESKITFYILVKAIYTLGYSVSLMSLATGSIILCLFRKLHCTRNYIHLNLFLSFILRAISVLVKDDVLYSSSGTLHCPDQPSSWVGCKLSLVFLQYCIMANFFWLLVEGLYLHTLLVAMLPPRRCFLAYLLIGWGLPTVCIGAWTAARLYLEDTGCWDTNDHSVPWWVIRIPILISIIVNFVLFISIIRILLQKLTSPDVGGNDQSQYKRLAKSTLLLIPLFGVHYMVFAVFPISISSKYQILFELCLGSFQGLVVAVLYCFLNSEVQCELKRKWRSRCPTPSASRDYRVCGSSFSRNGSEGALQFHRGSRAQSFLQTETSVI
Protocol: FIG. 5A-B. Results of BRET-based VIPR2 activation assays in cells expressing both the VIPR2 receptor and CAMYEL (see FIG. 1A for schematic). a) Inhibitory dose-response curves on treatment of CHO cells with increasing concentrations of a batch of antagonists against a background of VIP activation (VIP=5 nM).
In such a system, a detector cell is used which expresses both the VIPR2 receptor and “CAMYEL,” a YFP-Epac-RLuc8 BRET sensor construct. This construct includes Epac1, a guanine nucleotide exchange factor activated by direct binding of cAMP, fused with an enhanced YFP and Renilla luciferase 8 (Rluc8) allowing BRET upon cAMP-induced conformational changes (Jiang et al., 2007, J Biol Chem. 282:10576-10584). In response to elevated cAMP levels, there is a conformational change in Epac and therefore a change in the proximity of the fused chromophores, Rluc8 and YFP, resulting in measurable energy transfer. Coexpression of this BRET construct with VIPR2. optionally tagged at the N-terminus with a signal peptide and FLAG epitope (SF-VIPR2), for example in HEK293 cells, allows for detection of a VIPR2-specific response to cAMP. BRET readout may be calculated by quantifying the ratio of the light emitted by the acceptor, YFP (λ=525 nm), over the emission from the donor, RLuc8 (λ=485 nm). The proximity of the donor and acceptor, and therefore the BRET ratio, decreases in the presence of cAMP. In non-limiting specific embodiments, a stable cell line may be generated for this assay using the Flp-In T-Rex system in HEK293 cells. This system allows site-specific single copy integration of the gene of interest and control of expression levels using the Tet-repressor site making receptor expression tetracycline-inducible. For example, a CAMYEL and VIPR2 expressing line may be induced with 0.01 μg/ml tetracycline, then, 24 hours later cells may be collected and distributed into 96-well plates. After treatment with candidate inhibitor compound, for example at 5, 1 and 0.5 μM concentrations, cells may be incubated with the light emitting luciferin, coelenterazine H, for 5 min and incubated for 5 min with VIP at increasing concentrations, for example ranging from 100 pM to 10 μM. The fluorescence and luminescence may then be quantified, for example using a PHERAstar (BMG) plate reader. […] Alternatively, analogous experiments may be performed using human cells harvested from a patient having a VIPR2 copy number variation, for example (but not by way of limitation) pluripotent stem cells prepared from such a patient and then transfected with a CAMYEL construct.
A series of compounds were prepared using a synthetic method analogous to that set forth in Scheme 1, above, and then tested for their ability to inhibit VIP-induced cAMP elevation and β-arrestin recruitment, as described herein (Discoverx Corporation, Fremont, Calif., US). Compound activities were also tested in a BRET-based assay, as described herein. The results are shown below in Tables 1-4, above.
Numerous cellular assays were developed that were able to detect VIP responses absent of interference from non-specific vasopressin receptors using this CHO based system. VIPR2 is a Gs coupled receptor. Activation of VIPR2 by VIP leads to both an elevation in cAMP signaling and the recruitment of β-arrestin. A variety of combinations can be transiently transfect into these CHO cells for the assessment of cellular responses to VIP. For the BRET readout CHO cell lines expressing an YFP-Epac-RLuc8 (CAMYEL) BRET sensor were used to detect changes in cAMP. This construct includes Epac1, a guanine nucleotide exchange factor activated by direct binding of cAMP, fused to an enhanced YFP and RLuc8 allowing a change in BRET upon cAMP-induced conformational changes. The key for medium to high throughput screening assays is the use of stable cell lines allowing the continuous assaying of multiple compounds with the ability to generate large numbers of cells for rapid use. […]

[2] = target: T2, hVIPR1 (Homo sapiens, UniProt P32241); experiment: CAMYEL BRET cAMP assay in transient cell lines expressing hVIPR1; format: cell-based; conditions: transient cell lines expressing hVIPR1 and CAMYEL (FIG. 7)
T2 construct: expressed in transfected cells; host or cells: transient transfection with CAMYEL
T2 sequence (P32241 31-457): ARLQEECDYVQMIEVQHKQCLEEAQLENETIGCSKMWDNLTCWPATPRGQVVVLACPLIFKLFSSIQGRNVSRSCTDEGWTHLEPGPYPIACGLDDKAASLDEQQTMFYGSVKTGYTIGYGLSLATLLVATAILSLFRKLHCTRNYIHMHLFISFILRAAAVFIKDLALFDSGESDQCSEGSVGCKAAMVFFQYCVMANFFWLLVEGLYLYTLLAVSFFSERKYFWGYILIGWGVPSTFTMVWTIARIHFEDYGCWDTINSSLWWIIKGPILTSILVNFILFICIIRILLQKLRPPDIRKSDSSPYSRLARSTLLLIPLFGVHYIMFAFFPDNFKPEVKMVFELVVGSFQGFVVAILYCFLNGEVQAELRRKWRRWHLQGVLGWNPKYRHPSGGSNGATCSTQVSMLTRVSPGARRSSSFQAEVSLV
Source text: These assays are now being used for reliable and rapid quantification of VIPR2 responses to various antagonists under development for this receptor. This assay can also be used to evaluate agonists to VIPR2 and allosteric compounds, in addition to addresing the functional selectivity of different compounds, as it is possible to address multiple pathways effected by modulation of VIPR2 using this second messenger detection systems (cAMP and β-arrestin). This cellular assay for the detection of […] is applicable to multiple members of the […]. To this end lines were also developed expressing CAMYEL together with VIPR1 and PACAP1R (both the human and mouse forms) using transient transfection. This allows for the confirmation of specificity of novel antagonists to the VIPR2 receptor in addition to providing the ability to assay VIPR1 and PACAPR1 antagonists, agonists and allosteric modulators. […] These assays allow assays of VIPR2 antagonist, agonists and other compounds acting at […] in a specific, selective, rapid and medium to high throughput manner.

Structure (SMILES): CC(=O)c1ccc(S(=O)(=O)NC[C@@H](O)C[C@@H](Cc2ccccc2)C(=O)N[C@H]2c3ccccc3C[C@H]2O)cc1 [K]
- VIPR2 inhibition in BRET-based assay, in words [1]: significantly improved activity as an antagonist at VIPR2
- specificity for VIPR2 over hVIPR1 [2]: VIPR2 specificity
